Data from PubChem BioAssay (NCI).
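Results reflect a 48-hour exposure of cells in 96-well plates to compound at five concentrations. Abbreviation: GI50, concentration required for 50% inhibition of growth. TGI: total growth inhibition.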

Legend:
Assay in all cases: NCI-60 cell line screen, 48 h
EKVX NSCLC = test system: EKVX NSCLC
IGROV1 ovarian = test system: IGROV1 ovarian
NCI-H226 lung = test system: NCI-H226 lung
786-0 renal = test system: 786-0 renal
A498 renal = test system: A498 renal
DU-145 prostate = test system: DU-145 prostate
CAKI-1 renal = test system: CAKI-1 renal
KM12 colon = test system: KM12 colon
M14 melanoma = test system: M14 melanoma
ACHN renal = test system: ACHN renal

SMILES	TGI (EKVX NSCLC) [µM]	TGI (IGROV1 ovarian) [µM]	TGI (NCI-H226 lung) [µM]	TGI (786-0 renal) [µM]	TGI (A498 renal) [µM]	TGI (DU-145 prostate) [µM]	TGI (CAKI-1 renal) [µM]	TGI (KM12 colon) [µM]	TGI (M14 melanoma) [µM]	TGI (ACHN renal) [µM]	GI50 (EKVX NSCLC) [µM]	GI50 (IGROV1 ovarian) [µM]	GI50 (NCI-H226 lung) [µM]	GI50 (786-0 renal) [nM]	GI50 (DU-145 prostate) [µM]	GI50 (CAKI-1 renal) [nM]	GI50 (KM12 colon) [nM]	GI50 (M14 melanoma) [nM]	GI50 (ACHN renal) [nM]	GI50 (A498 renal) [µM]
COc1cc2c(cc1OC)C(Cl)C(c1ccc(F)cc1)=C2Cl (centres undefined)	40.7	37.2	74	24.8	29.9	37.5	29.1	32.3	29.2	26.1	–	–	–	–	–	–	–	–	–	–
O=C(NC1CCCCC1)NS(=O)(=O)c1ccc(N2N=C3c4ccccc4CC3C2c2ccc(Cl)cc2)cc1 (centres undefined)	22.8	25.5	49.1	26.3	9.2	21.1	31.8	27.9	24.4	31.9	5.38	5.98	19.8	13300	5.5	12800	7900	10800	13400	–
CC(=C(c1ccc(OCCN2CCCCC2)cc1)c1ccc(OCCN2CCCCC2)cc1)c1ccc(Cl)cc1	0.857	0.82	0.962	0.805	0.755	0.87	0.74	0.887	0.837	0.779	0.433	0.432	0.457	419	0.458	397	454	438	434	0.386
O=C1c2ccccc2C(=O)c2c(/C=C\N3CCCCC3)ccnc21	31.2	36.8	8.31	31.3	31.8	2.96	39.5	18	1.26	21.1	–	–	–	–	–	–	–	–	–	–
Br[Se]c1ccccn1	31.5	31.5	36.8	32.6	34	30.8	33	31.7	31.7	29.9	–	–	–	–	–	–	–	–	–	–
COC(=O)[C@]12CC[C@@H](C)[C@H](C)[C@@H]1C1=CC[C@@H]3[C@@]4(C)C[C@@H](O)[C@H](O)[C@@](C)(CO)[C@@H]4[C@H](O)C[C@@]3(C)[C@]1(C)CC2	31.4	29.4	45	31.6	30.9	31.8	27.3	26.4	29.4	21.6	13.4	12.4	17.8	11500	16.4	13100	12300	12800	7800	16.6
CCOc1ccc(NC2=CC(=O)C(=O)c3ccccc32)cc1	30.9	16.9	13.3	13.7	12.2	5.05	20.9	12.2	3.27	5.74	–	–	–	–	–	–	–	–	–	–
CC(C)[C@@H]1NC(=O)[C@]2(C)CSC(=N2)c2ccnc(c2)CNC(=O)C[C@@H](/C=C/CCS)OC1=O	> 100	2.43	12.4	> 28	0.254	> 100	15.6	> 86.1	> 100	14.9	0.234	0.159	0.458	911	0.231	2860	85.7	95.7	2460	0.0323
O=C(Nc1nn2c(-c3cc(C(F)(F)F)cc(C(F)(F)F)c3)nnc2s1)C1CCCC1	> 25.2	> 100	> 100	> 32.8	2.92	> 100	> 65.2	> 46.2	> 100	> 31.6	0.366	0.553	1.23	663	1.95	311	575	957	1040	0.255
CCCCCCCCCCSC(=N)N (tested in a mixture with another compound)	23.7	18.9	40.1	4.54	19.7	16.1	5.04	4.12	3.85	10.1	6.89	5.2	18.3	1910	4.47	2030	1970	1870	2860	6.55
C=C(C)C(=O)O[C@@H]1C[C@@]2(C)O[C@@H]2C[C@H](O)/C(C)=C/[C@H]2OC(=O)C(=C)[C@@H]21	> 100	> 100	> 100	> 100	> 100	> 100	67.4	> 100	> 100	> 100	–	–	–	–	–	–	–	–	–	–
CN(C)c1ccc(/C=N/NC(=S)Nc2ccccc2)cc1	> 100	> 100	> 100	> 100	> 100	> 100	> 100	> 100	> 100	> 100	–	–	–	–	–	–	–	–	–	–
C[C@@H]1CC[C@H]2C(C)(C)[C@H]3C[C@@]12CC[C@@]3(C)O	> 100	> 100	> 100	> 100	> 100	> 100	> 100	> 100	> 100	> 100	–	–	–	–	–	–	–	–	–	–
CC[C@@H](c1ccc(O)c(O)c1)[C@@H](CC)c1ccc(O)c(O)c1	29.4	85.5	44	38.2	> 100	26.2	9.43	35.1	13.5	4.03	13.4	9.57	21.1	20400	12.9	2770	18500	3590	1940	44.4
NCCNCCNCCN	> 100	> 100	> 100	> 100	> 100	> 100	> 100	> 100	> 100	> 100	> 100	> 100	> 100	> 100000	> 100	> 100000	> 100000	> 100000	> 100000	> 100
